Experiments:
Format in all cases: in vivo
Kochia (Kochia scoparia) [1] = experiment: Test A postemergence; conditions: for Kochia plant response rating: 125 g ai/ha, visual injury rating on 0 to 100 scale (0 no effect, 100 complete control), approx. 10 d; for Plant response rating, Kochia: 500 g ai/ha
How it was run: (§1)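 Seeds sprayed preemergence with a directed soil spray, or plants at 2 to 10 cm height and one- to two-leaf stage sprayed postemergence, with test chemicals in a non-phytotoxic solvent mixture containing surfactant, in loam soil–sand blend. Injury rated visually against untreated controls after about 10 d in greenhouse, 0 (no effect) to 100 (complete control).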

[2] = tested on: wheat (Triticum aestivum); experiment: Test A postemergence; conditions: for Wheat plant response rating: 125 g ai/ha, visual injury rating on 0 to 100 scale (0 no effect, 100 complete control), approx. 10 d; for Plant response rating, Wheat: 500 g ai/ha
How it was run: as §1

[3] = tested on: Galium (catchweed bedstraw, Galium aparine); experiment: Test A postemergence; conditions: for Galium plant response rating: 125 g ai/ha, visual injury rating on 0 to 100 scale (0 no effect, 100 complete control), approx. 10 d; for Plant response rating, Galium: 500 g ai/ha
How it was run: as §1

[4] = tested on: ryegrass, Italian (Italian ryegrass, Lolium multiflorum); experiment: Test A postemergence; conditions: for Ryegrass, Italian plant response rating: 125 g ai/ha, visual injury rating on 0 to 100 scale (0 no effect, 100 complete control), approx. 10 d; for Plant response rating, Ryegrass, Italian: 500 g ai/ha
How it was run: as §1

corn (Zea mays) = experiment: Test A postemergence; conditions: postemergence; for Corn plant response rating: 125 g ai/ha, visual injury rating on 0 to 100 scale (0 no effect, 100 complete control), approx. 10 d; for Plant response rating, Corn: 500 g ai/ha, 0 to 100 scale, 0 no effect, 100 complete control
How it was run: as §1

[5] = tested on: pigweed (Amaranthus retroflexus); experiment: Test A postemergence; conditions: for Pigweed plant response rating: 125 g ai/ha, visual injury rating on 0 to 100 scale (0 no effect, 100 complete control), approx. 10 d; for Plant response rating, Pigweed: 500 g ai/ha
How it was run: as §1

[6] = tested on: giant foxtail (Setaria faberii); experiment: Test A postemergence; conditions: for Foxtail, Giant plant response rating: 125 g ai/ha, visual injury rating on 0 to 100 scale (0 no effect, 100 complete control), approx. 10 d; for Plant response rating, Foxtail, Giant: 500 g ai/ha
How it was run: as §1

[7] = tested on: ragweed (common ragweed, Ambrosia elatior); experiment: Test A postemergence; conditions: for Ragweed plant response rating: 125 g ai/ha, visual injury rating on 0 to 100 scale (0 no effect, 100 complete control), approx. 10 d; for Plant response rating, Ragweed: 500 g ai/ha
How it was run: as §1

[8] = tested on: blackgrass (Alopecurus myosuroides); experiment: Test A postemergence; conditions: postemergence; for Blackgrass plant response rating: 125 g ai/ha, visual injury rating on 0 to 100 scale (0 no effect, 100 complete control), approx. 10 d; for Plant response rating, Blackgrass: 500 g ai/ha, 0 to 100 scale, 0 no effect, 100 complete control
How it was run: as §1

[9] = tested on: barnyardgrass (Echinochloa crus-galli); experiment: Test A postemergence; conditions: postemergence; for Barnyardgrass plant response rating: 125 g ai/ha, visual injury rating on 0 to 100 scale (0 no effect, 100 complete control), approx. 10 d; for Plant response rating, Barnyardgrass: 500 g ai/ha, 0 to 100 scale, 0 no effect, 100 complete control
How it was run: as §1

Kochia (Kochia scoparia) [10] = experiment: Test A preemergence; conditions: for Plant response rating, Kochia: 125 g ai/ha, preemergence, 0 to 100 scale (0 no effect, 100 complete control); for Kochia plant response rating (0 to 100 scale, 0 is no effect, 100 is complete control): Preemergence, 500 g ai/ha, visual injury approx. 10 d
How it was run: as §1

[11] = tested on: ryegrass, Italian (Italian ryegrass, Lolium multiflorum); experiment: Test A preemergence; conditions: for Plant response rating, Ryegrass, Italian: 125 g ai/ha; for Ryegrass, Italian plant response rating (0 to 100 scale, 0 is no effect, 100 is complete control): 500 g ai/ha, visual injury approx. 10 d
How it was run: as §1

[12] = tested on: pigweed (Amaranthus retroflexus); experiment: Test A preemergence; conditions: for Plant response rating, Pigweed: 125 g ai/ha; for Pigweed plant response rating (0 to 100 scale, 0 is no effect, 100 is complete control): 500 g ai/ha, visual injury approx. 10 d
[13] = tested on: giant foxtail (Setaria faberii); experiment: Test A preemergence; conditions: for Plant response rating, Foxtail, Giant: 125 g ai/ha, preemergence, 0 to 100 scale (0 no effect, 100 complete control); for Foxtail, Giant plant response rating (0 to 100 scale, 0 is no effect, 100 is complete control): Preemergence, 500 g ai/ha, visual injury approx. 10 d
How it was run: as §1

[14] = tested on: ragweed (common ragweed, Ambrosia elatior); experiment: Test A preemergence; conditions: for Plant response rating, Ragweed: 125 g ai/ha; for Ragweed plant response rating (0 to 100 scale, 0 is no effect, 100 is complete control): 500 g ai/ha, visual injury approx. 10 d
How it was run: as §1

[15] = tested on: barnyardgrass (Echinochloa crus-galli); experiment: Test A preemergence; conditions: for Plant response rating, Barnyardgrass: 125 g ai/ha, preemergence, 0 to 100 scale (0 no effect, 100 complete control); for Barnyardgrass plant response rating (0 to 100 scale, 0 is no effect, 100 is complete control): Preemergence, 500 g ai/ha, visual injury approx. 10 d
How it was run: as §1

[16] = tested on: sedge, umbrella (small-flower umbrella sedge, Cyperus difformis); experiment: Test B flooded paddy test; conditions: Flood, 250 g ai/ha; 0 to 100 scale where 0 is no effect and 100 is complete control; 13 to 15 d
How it was run: (§2)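 Flooding to 3 cm over soil accompanied treatment, which consisted of adding compound to the standing water around 2-leaf plants; depth was then maintained. Visual assessment versus controls followed at 13 to 15 d (scale 0–100, 0 meaning no effect).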

[17] = tested on: ducksalad (Heteranthera limosa); experiment: Test B flooded paddy test; conditions: Flood, 250 g ai/ha; 0 to 100 scale where 0 is no effect and 100 is complete control; 13 to 15 d
How it was run: as §2

rice (Oryra sativa) = experiment: Test B flooded paddy test; conditions: Flood, 250 g ai/ha; 0 to 100 scale where 0 is no effect and 100 is complete control; 13 to 15 d
How it was run: as §2

[18] = tested on: barnyardgrass (Echinochloa crus-galli); experiment: Test B flooded paddy test; conditions: Flood, 250 g ai/ha; 0 to 100 scale where 0 is no effect and 100 is complete control; 13 to 15 d
How it was run: as §2

[19] = postemergence, 0 to 100 scale, 0 no effect, 100 complete control
[20] = preemergence, 0 to 100 scale (0 no effect, 100 complete control)
[21] = Postemergence, 0 to 100 scale where 0 is no effect and 100 is complete control
[22] = Preemergence, visual injury after approximately 10 d, 0 to 100 scale where 0 is no effect and 100 is complete control

Structure (SMILES)	Kochia plant response rating (Kochia (Kochia scoparia) [1]; postemergence)	Wheat plant response rating ([2]; postemergence)	Galium plant response rating ([3]; postemergence)	Ryegrass, Italian plant response rating ([4]; postemergence)	Corn plant response rating (corn (Zea mays))	Plant response rating, Corn (corn (Zea mays))	Pigweed plant response rating ([5]; postemergence)	Foxtail, Giant plant response rating ([6]; postemergence)	Ragweed plant response rating ([7]; postemergence)	Blackgrass plant response rating [8]	Plant response rating, Blackgrass [8]	Barnyardgrass plant response rating [9]	Plant response rating, Barnyardgrass [9]	Plant response rating, Kochia (Kochia (Kochia scoparia) [10])	Kochia plant response rating (0 to 100 scale, 0 is no effect, 100 is complete control) (Kochia (Kochia scoparia) [10])	Ryegrass, Italian plant response rating (0 to 100 scale, 0 is no effect, 100 is complete control) ([11]; Preemergence)	Pigweed plant response rating (0 to 100 scale, 0 is no effect, 100 is complete control) ([12]; Preemergence)	Plant response rating, Foxtail, Giant [13]	Foxtail, Giant plant response rating (0 to 100 scale, 0 is no effect, 100 is complete control) [13]	Ragweed plant response rating (0 to 100 scale, 0 is no effect, 100 is complete control) ([14]; Preemergence)	also measured
Cc1c(F)ccc(NC(=O)C2C(=O)NCC2c2cccc(C(F)(F)F)c2)c1F (stereo not drawn) [Compound 463]	0	0	0	0	0	0	0	70	0	20	70	50	70	0	0	20	0	80	90	0	Plant response rating, Kochia (Kochia (Kochia scoparia) [1]; [19]): 0; Plant response rating, Wheat [2, 19]: 0; Plant response rating, Galium [3, 19]: 0; Plant response rating, Ryegrass, Italian [4, 19]: 30; Plant response rating, Pigweed [5, 19]: 0; Plant response rating, Foxtail, Giant [6, 19]: 70; Plant response rating, Ragweed [7, 19]: 0; Plant response rating, Ryegrass, Italian [11, 20]: 0; Plant response rating, Pigweed [12, 20]: 0; Plant response rating, Ragweed [14, 20]: 0; Plant response rating, Barnyardgrass [15]: 50; Barnyardgrass plant response rating (0 to 100 scale, 0 is no effect, 100 is complete control) [15]: 80; Plant response rating, Sedge, Umbrella [16]: 0; Plant response rating, Ducksalad [17]: 70; Plant response rating, Rice (rice (Oryra sativa)): 0; Plant response rating, Barnyardgrass [18]: 25
CCc1ccc(C2CNC(=O)C2C(=O)Nc2ccccc2F)cc1 (stereo not drawn) [Compound 466]	0	0	0	0	0	30	0	20	0	30	60	80	90	0	0	20	0	70	90	30	Plant response rating, Kochia (Kochia (Kochia scoparia) [1]; [19]): 0; Plant response rating, Wheat [2, 19]: 20; Plant response rating, Galium [3, 19]: 0; Plant response rating, Ryegrass, Italian [4, 19]: 20; Plant response rating, Pigweed [5, 19]: 0; Plant response rating, Foxtail, Giant [6, 19]: 80; Plant response rating, Ragweed [7, 19]: 30; Plant response rating, Ryegrass, Italian [11, 20]: 0; Plant response rating, Pigweed [12, 20]: 0; Plant response rating, Ragweed [14, 20]: 0; Plant response rating, Barnyardgrass [15]: 90; Barnyardgrass plant response rating (0 to 100 scale, 0 is no effect, 100 is complete control) [15]: 90; Plant response rating, Sedge, Umbrella [16]: 0; Plant response rating, Ducksalad [17]: 0; Plant response rating, Rice (rice (Oryra sativa)): 0; Plant response rating, Barnyardgrass [18]: 0
CCc1ccc(C2CNC(=O)C2C(=O)Nc2cccc(F)c2F)cc1 (stereo not drawn) [Compound 467]	0	0	0	0	0	20	0	40	0	0	0	80	90	30	50	20	0	90	100	70	Plant response rating, Kochia (Kochia (Kochia scoparia) [1]; [21]): 0; Plant response rating, Wheat [2, 21]: 30; Plant response rating, Galium [3, 21]: 0; Plant response rating, Ryegrass, Italian [4, 21]: 40; Plant response rating, Pigweed [5, 21]: 0; Plant response rating, Foxtail, Giant [6, 21]: 80; Plant response rating, Ragweed [7, 21]: 20; Plant response rating, Ryegrass, Italian [11, 22]: 0; Plant response rating, Pigweed [12, 22]: 0; Plant response rating, Ragweed [14, 22]: 30; Plant response rating, Barnyardgrass [15]: 90; Barnyardgrass plant response rating (0 to 100 scale, 0 is no effect, 100 is complete control) [15]: 90; Plant response rating, Sedge, Umbrella [16]: 0; Plant response rating, Ducksalad [17]: 80; Plant response rating, Rice (rice (Oryra sativa)): 0; Plant response rating, Barnyardgrass [18]: 20

From US12077503B2, “Substituted cyclic amides and their use as herbicides” (FMC CORPORATION, priority 2015, dated 2024)
